Measured values from patent US20230265116A1, “DEGRADATION OF (EGFR) BY CONJUGATION OF EGFR INHIBITORS WITH E3 LIGASE LIGAND AND METHODS OF USE” (BEIGENE, LTD., priority 2020, published 2023).
Read-outs that look alike come from different tables or passages of the source.

Assays:
[1] = biological target: T1, EGFR L858R/T790M/C797S (BaF3-LTC cells) (Homo sapiens, UniProt P00533, C797S/L858R/T790M); assay: EGFR degradation HTRF assay, BaF3-LTC cells; type: cell-based
T1 construct: expressed in transfected cells; host or cells: BaF3
Description: (§1) BaF3 WT(wild type), BaF3-LTC(L858R/T790M/C797S) and BaF3-DTC(Del19/T790M/C797S) cells are treated with compounds diluted in 0.2% DMSO cell culture medium and incubate for 16h, 37° C., 5% CO2, H1975-#36, H1975-#28, H1975-#23 and HCC827 cells are treated with compounds diluted in 0.2% DMSO cell culture medium on day 2, incubate for 16h, 37° C., 5% CO2.the final concentriation of compounds in all assay is start with 10 uM, 5-fold dilution, total 8 doses were included.
(§2) After 16h treatment, add HTRF lysis buffer to each well; seal the plate and incubate 1 hour at room temperature on a plate shaker; Once the cells are lysed, 16 μL of cell lysate are transferred to a PE 384-well HTRF detection plate; 4 μL of pre-mixed HTRF antibodies are added to each well; Cover the plate with a plate sealer, spin 1000 rpm for 1 min, Incubate overnight at room temperature; Read on BMG PheraStar with HTRF protocol (337 nm-665 nm-620 nm).
(§3) The inhibition (degradation) percentage of the compound was calculated by the following equation: Inhibition percentage of Compound=100-100×(Signal-low control)/(High control-low control), wherein signal=each test compound group
(§4) High control=Cell group with added DMSO and without compound, indicating microplate readings without EGFR degradation;
(§5) Dmax is the maximum percentage of inhibition (degradation).
(§6) The IC50 (DC50) value of a compound can be obtained by fitting the following equation
(§7) Y=Bottom+(TOP−Bottom)/(1+((IC50/X)^hillslope))
(§8) Wherein, X and Y are known values, and IC50, Hillslope, Top and Bottom are the parameters obtained by fitting with software. Y is the inhibition percentage (calculated from the equation), X is the concentration of the compound; IC50 is the concentration of the compound when the 50% inhibition is reached. The smaller the IC50 value is, the stronger the inhibitory ability of the compound is. Vice versa, the higher the IC50 value is, the weaker the inhibitory ability of the compound is; Hillslope represents the slope of the fitted curve, generally around 1*; Bottom represents the minimum value of the curve obtained by data fitting, which is generally 0%±20%; Top represents the maximum value of the curve obtained by data fitting, which is generally 100%±20%. The experimental data were fitted by calculating and analyzing with Dotmatics data analysis software.

[2] = test system: EGFR Del19/T790M/C797S (H1975-clone #28); assay: EGFR degradation HTRF assay, H1975-clone #28 DTC cells; type: cell-based
Description: H1975-clone #28(Del19/T790M/C797S) and H1975-clone #23(Del19/C797S). EGFR-Del19/T790M/C797S and EGFR-Del19/C797S were stably expressed in H1975 cell lines by lentivirus-mediated over-expression, respectively. The EGFR over-expressed cells then underwent gene knockout, in which the EGFR targeting sgRNA was designed to only target the endogenous EGFR copies and preserve the exogenous EGFR copies. Followed by the gene knockout, the edited H1975 cells were seeded in 96 well plates at the concentration of 1 cell/well, cultured for about 2 weeks to allow single clones formation. The formed clones were screened by DNA sequencing and whole exon sequencing analysis for the desired edition. H1975-clone #28 and H1975-clone #23 were finally confirmed as homozygous Del19/T790M/C797S EGFR and Del19/C797S EGFR clones, respectively.
as §1, §2, §3, §4, §5, §6, §7, §8

[3] = BaF3-LTC cells; EGFR degradation, IC50 (DC50) from curve fit; read-out: DC50(nM) BaF3-LTC
[4] = BaF3-LTC cells; maximum percentage of inhibition (degradation); read-out: Dmax (%) BaF3-LTC
[5] = H1975 # 28 DTC cells; EGFR degradation, IC50 (DC50) from curve fit; read-out: DC50(nM) H1975 # 28 DTC
[6] = H1975 # 28 DTC cells; maximum percentage of inhibition (degradation)
[7] = read-out: DC50(nM) BaF3-LTC; BaF3-LTC cells; EGFR degradation, IC50 (DC50) from curve fit
[8] = read-out: Dmax (%) BaF3-LTC, BaF3-LTC cells; maximum percentage of inhibition (degradation)
[9] = read-out: DC50(nM) H1975 # 28 DTC; H1975 # 28 DTC cells; EGFR degradation, IC50 (DC50) from curve fit

T1 sequence (P00533 25-1210 T790M/C797S/L858R): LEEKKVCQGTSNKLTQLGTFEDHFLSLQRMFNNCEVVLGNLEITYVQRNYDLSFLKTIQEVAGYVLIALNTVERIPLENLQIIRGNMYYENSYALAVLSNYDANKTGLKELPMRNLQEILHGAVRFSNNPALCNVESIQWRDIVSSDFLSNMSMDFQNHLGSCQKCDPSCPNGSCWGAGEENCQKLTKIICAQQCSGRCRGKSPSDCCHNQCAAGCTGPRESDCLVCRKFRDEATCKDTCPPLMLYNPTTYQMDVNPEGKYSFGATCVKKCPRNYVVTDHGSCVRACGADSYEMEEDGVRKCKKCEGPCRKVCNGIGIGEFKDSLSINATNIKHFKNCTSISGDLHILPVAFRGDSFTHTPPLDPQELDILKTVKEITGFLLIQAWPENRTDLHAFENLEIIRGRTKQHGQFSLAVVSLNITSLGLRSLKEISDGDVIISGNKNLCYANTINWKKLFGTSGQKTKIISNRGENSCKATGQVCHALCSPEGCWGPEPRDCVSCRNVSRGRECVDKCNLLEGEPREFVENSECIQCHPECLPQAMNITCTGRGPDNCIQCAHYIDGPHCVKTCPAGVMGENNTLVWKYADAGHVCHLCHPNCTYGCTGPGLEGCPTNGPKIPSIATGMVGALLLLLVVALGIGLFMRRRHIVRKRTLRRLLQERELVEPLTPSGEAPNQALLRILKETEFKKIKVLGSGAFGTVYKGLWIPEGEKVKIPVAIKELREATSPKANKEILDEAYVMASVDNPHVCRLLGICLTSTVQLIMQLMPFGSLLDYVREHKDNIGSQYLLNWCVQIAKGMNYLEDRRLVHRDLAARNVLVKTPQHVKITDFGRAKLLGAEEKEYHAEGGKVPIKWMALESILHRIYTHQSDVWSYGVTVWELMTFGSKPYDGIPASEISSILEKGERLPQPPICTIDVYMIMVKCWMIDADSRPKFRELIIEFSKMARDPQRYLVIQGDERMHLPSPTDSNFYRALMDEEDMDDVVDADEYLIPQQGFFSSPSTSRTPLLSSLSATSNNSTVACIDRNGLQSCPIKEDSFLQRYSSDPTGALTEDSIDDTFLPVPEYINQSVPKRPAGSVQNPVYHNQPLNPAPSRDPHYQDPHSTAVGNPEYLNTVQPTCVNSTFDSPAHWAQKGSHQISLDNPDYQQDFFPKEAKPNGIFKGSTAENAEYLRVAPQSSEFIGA

Row | SMILES | DC50 [1, 3] [nM] | Dmax [1, 4] [%] | DC50 [2, 5] [nM] | Dmax (%) H1975 # 28 DTC [2, 6] [%] | DC50 [1, 7] [nM] | Dmax [1, 8] [%] | DC50 [2, 9] [nM] | Dmax (%) BaF3-LTC ([1]; BaF3-LTC cells; maximum percentage of inhibition (degradation)) [%]
1 | CCOc1cc(N2CCC(N3CCN(C[C@@H]4CCN(c5cc(F)cc6c5oc(=O)n6C5CCC(=O)NC5=O)C4)CC3)CC2)c(CC)cc1Nc1ncc(Br)c(Nc2ccc3nc(CC)ccc3c2P(C)(C)=O)n1 (stereo partly drawn) [Example 476, 3-(7-((S)-3-((4-(1-(4-((5-bromo-4-((5-(dimethylphosphoryl)-2-ethylquinolin-6-yl)amino)pyrimidin-2-yl)amino)-5-ethoxy-2-ethylphenyl)piperidin-4-yl)piperazin-1-yl)methyl)pyrrolidin-1-yl)-5-fluoro-2-oxobenzo[d]oxazol-3(2H)-yl)piperidine-2,6-dione] | 26.5 | 88 | 7.95 | 74.62 |  |  |  | 
2 | CCOc1cc(N2CCC(N3CCN(C(=O)[C@@H]4CCN(c5cc(F)cc6c5oc(=O)n6C5CCC(=O)NC5=O)C4)CC3)CC2)c(CC)cc1Nc1ncc(Br)c(Nc2ccc3nc(CC)ccc3c2P(C)(C)=O)n1 (stereo partly drawn) [Example 477, 3-(7-((R)-3-(4-(1-(4-((5-bromo-4-((5-(dimethylphosphoryl)-2-ethylquinolin-6-yl)amino)pyrimidin-2-yl)amino)-5-ethoxy-2-ethylphenyl)piperidin-4-yl)piperazine-1-carbonyl)pyrrolidin-1-yl)-5-fluoro-2-oxobenzo[d]oxazol-3(2H)-yl)piperidine-2,6-dione] |  |  |  | 73.35 | 7.16 | 82.7 | 4.24 | 
3 | CCOc1cc(N2CCC(N3CCN(C(=O)[C@@H]4CCN(c5cccc6c5oc(=O)n6C5CCC(=O)NC5=O)C4)CC3)CC2)c(CC)cc1Nc1ncc(Br)c(Nc2ccc3nc(CC)ccc3c2P(C)(C)=O)n1 (stereo partly drawn) [Example 478, 3-(7-((R)-3-(4-(1-(4-((5-bromo-4-((5-(dimethylphosphoryl)-2-ethylquinolin-6-yl)amino)pyrimidin-2-yl)amino)-5-ethoxy-2-ethylphenyl)piperidin-4-yl)piperazine-1-carbonyl)pyrrolidin-1-yl)-2-oxobenzo[d]oxazol-3(2H)-yl)piperidine-2,6-dione] |  |  |  | 80.49 | 3.05 |  | 0.645 | 88.22
4 | CCOc1cc(N2CCC(N3CCN(C(=O)[C@H]4CN(c5cc(F)cc6c5oc(=O)n6C5CCC(=O)NC5=O)CC4(C)C)CC3)CC2)c(CC)cc1Nc1ncc(Br)c(Nc2ccc3nc(CC)ccc3c2P(C)(C)=O)n1 (stereo partly drawn) [Example 480, 3-(7-((R)-4-(4-(1-(4-((5-bromo-4-((5-(dimethylphosphoryl)-2-ethylquinolin-6-yl)amino)pyrimidin-2-yl)amino)-5-ethoxy-2-ethylphenyl)piperidin-4-yl)piperazine-1-carbonyl)-3,3-dimethylpyrrolidin-1-yl)-5-fluoro-2-oxobenzo[d]oxazol-3(2H)-yl)piperidine-2,6-dione] |  |  |  | 69.54 | 18.9 | 89.4 | 7.82 | 
5 | CCc1ccc2c(P(C)(C)=O)c(Nc3nc(Nc4cc(CC)c(N5CCC(N6CCN(CC7CN(c8cc(F)c(C9CCC(=O)NC9=O)c(F)c8)C7)CC6)CC5)cc4OC)ncc3Br)ccc2n1 (stereo not shown) [Example 508, 3-(4-(3-((4-(1-(4-((5-bromo-4-((5-(dimethylphosphoryl)-2-ethylquinolin-6-yl)amino)pyrimidin-2-yl)amino)-2-ethyl-5-methoxyphenyl)piperidin-4-yl)piperazin-1-yl)methyl)azetidin-1-yl)-2,6-difluorophenyl)piperidine-2,6-dione] | 14.7 | 89.3 | 1 | 72.7 |  |  |  | 
6 | CCc1cc(Nc2ncc(Br)c(Nc3cc(F)c4nc(C)ccc4c3P(C)(C)=O)n2)c(OC)cc1N1CCC(N2CCN(CCc3cc(F)c([C@H]4CCC(=O)NC4=O)c(F)c3)CC2)CC1 [Example 510, (R)-3-(4-(2-(4-(1-(4-((5-bromo-4-((5-(dimethylphosphoryl)-8-fluoro-2-methylquinolin-6-yl)amino)pyrimidin-2-yl)amino)-2-ethyl-5-methoxyphenyl)piperidin-4-yl)piperazin-1-yl)ethyl)-2,6-difluorophenyl)piperidine-2,6-dione] | 3.89 | 93.1 | 0.763 | 67.2 |  |  |  | 
7 | CCc1cc(Nc2ncc(Br)c(Nc3cc(F)c4nc(C)ccc4c3P(C)(C)=O)n2)c(OC)cc1N1CCC(N2CCN(C(=O)C3CCN(c4cc(F)c(C5CCC(=O)NC5=O)c(F)c4)CC3)CC2)CC1 (stereo not shown) [Example 512, 3-(4-(4-(4-(1-(4-((5-bromo-4-((5-(dimethylphosphoryl)-8-fluoro-2-methylquinolin-6-yl)amino)pyrimidin-2-yl)amino)-2-ethyl-5-methoxyphenyl)piperidin-4-yl)piperazine-1-carbonyl)piperidin-1-yl)-2,6-difluorophenyl)piperidine-2,6-dione] | 6.46 | 92 | 2.36 | 60.54 |  |  |  | 
8 | COc1cc(N2CCC(N3CCN(C(=O)[C@H]4CCN(c5cc(F)c(C6CCC(=O)NC6=O)c(F)c5)C4)CC3)CC2)c(C)cc1Nc1ncc(Br)c(Nc2ccc3c(=O)n(C)ncc3c2P(C)(C)=O)n1 (stereo partly drawn) [Example 513, 3-(4-((S)-3-(4-(1-(4-((5-bromo-4-((5-(dimethylphosphoryl)-2-methyl-1-oxo-1,2-dihydrophthalazin-6-yl)amino)pyrimidin-2-yl)amino)-5-methoxy-2-methylphenyl)piperidin-4-yl)piperazine-1-carbonyl)pyrrolidin-1-yl)-2,6-difluorophenyl)piperidine-2,6-dione] | 10.2 | 85.2 | 1.37 | 78.24 |  |  |  | 
9 | CCc1ccc2c(P(C)(C)=O)c(Nc3nc(Nc4cc(CC)c(N5CCC(N6CCN(C(=O)[C@@H]7CCN(c8cc(F)c(C9CCC(=O)NC9=O)c(F)c8)C7)CC6)CC5)cc4OC)ncc3Br)ccc2n1 (stereo partly drawn) [Example 515, 3-(4-((R)-3-(4-(1-(4-((5-bromo-4-((5-(dimethylphosphoryl)-2-ethylquinolin-6-yl)amino)pyrimidin-2-yl)amino)-2-ethyl-5-methoxyphenyl)piperidin-4-yl)piperazine-1-carbonyl)pyrrolidin-1-yl)-2,6-difluorophenyl)piperidine-2,6-dione] | 19.7 | 90.4 | 3.22 | 66.35 |  |  |  | 
10 | CCc1cc(Nc2ncc(Br)c(Nc3ccc4nc(C)ccc4c3P(C)(C)=O)n2)c(OC)cc1N1CCC(N2CCN(C(=O)C3CCN(c4cc(F)c(C5CCC(=O)NC5=O)c(F)c4)CC3)CC2)CC1 (stereo not shown) [Example 517, 3-(4-(4-(4-(1-(4-((5-bromo-4-((5-(dimethylphosphoryl)-2-methylquinolin-6-yl)amino)pyrimidin-2-yl)amino)-2-ethyl-5-methoxyphenyl)piperidin-4-yl)piperazine-1-carbonyl)piperidin-1-yl)-2,6-difluorophenyl)piperidine-2,6-dione] | 7 | 91.3 | 0.968 | 58.8 |  |  |  | 
